Results published in the supplement of paper PMC11451515.

Tested on: NOMO1
Assay: cell viability relative to DMSO control; higher = less cytotoxic
Settings: 48 h
Outline: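 NOMO1 or SEM cells were plated at 500 cells/well and P12-Ichikawa cells at 1000 cells/well in 1536-well plates (5 μl), after each leukemia line had been adapted for at least four passages in each medium. Pin dosing delivered library compounds in DMSO at 11 threefold concentrations, 47 μM to 0.79 nM. CellTiter-Glo One luminescence was read after 48 h at 37°C. Viability is reported as a per-plate percentage of DMSO wells, with cell-free wells as background.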

[1] = HPLM + 10% dialyzed FBS, 0.000781 µM
[2] = HPLM + 10% dialyzed FBS, 0.00234 µM
[3] = HPLM + 10% dialyzed FBS, 0.00702 µM
[4] = HPLM + 10% dialyzed FBS, 0.0211 µM
[5] = HPLM + 10% dialyzed FBS, 0.0632 µM
[6] = HPLM + 10% dialyzed FBS, 0.19 µM
[7] = HPLM + 10% dialyzed FBS, 0.569 µM
[8] = HPLM + 10% dialyzed FBS, 1.71 µM
[9] = HPLM + 10% dialyzed FBS, 5.12 µM
[10] = HPLM + 10% dialyzed FBS, 15.4 µM
[11] = HPLM + 10% dialyzed FBS, 46.1 µM
[12] = RPMI 5 mM glucose + 10% FBS, 0.000781 µM
[13] = RPMI 5 mM glucose + 10% FBS, 0.00234 µM
[14] = RPMI 5 mM glucose + 10% FBS, 0.00702 µM
[15] = RPMI 5 mM glucose + 10% FBS, 0.0211 µM
[16] = RPMI 5 mM glucose + 10% FBS, 0.0632 µM
[17] = RPMI 5 mM glucose + 10% FBS, 0.19 µM
[18] = RPMI 5 mM glucose + 10% FBS, 0.569 µM
[19] = RPMI 5 mM glucose + 10% FBS, 1.71 µM
[20] = RPMI 5 mM glucose + 10% FBS, 5.12 µM
[21] = RPMI 5 mM glucose + 10% FBS, 15.4 µM
[22] = RPMI 5 mM glucose + 10% FBS, 46.1 µM
[23] = RPMI 5 mM glucose + 10% dialyzed FBS, 0.000781 µM
[24] = RPMI 5 mM glucose + 10% dialyzed FBS, 0.00234 µM
[25] = RPMI 5 mM glucose + 10% dialyzed FBS, 0.00702 µM
[26] = RPMI 5 mM glucose + 10% dialyzed FBS, 0.0211 µM
[27] = RPMI 5 mM glucose + 10% dialyzed FBS, 0.0632 µM
[28] = RPMI 5 mM glucose + 10% dialyzed FBS, 0.19 µM
[29] = RPMI 5 mM glucose + 10% dialyzed FBS, 0.569 µM
[30] = RPMI 5 mM glucose + 10% dialyzed FBS, 1.71 µM
[31] = RPMI 5 mM glucose + 10% dialyzed FBS, 5.12 µM
[32] = RPMI 5 mM glucose + 10% dialyzed FBS, 15.4 µM
[33] = RPMI 5 mM glucose + 10% dialyzed FBS, 46.1 µM

| SMILES | cell viability [1] | cell viability [2] | cell viability [3] | cell viability [4] | cell viability [5] | cell viability [6] | cell viability [7] | cell viability [8] | cell viability [9] | cell viability [10] | cell viability [11] | cell viability [12] | cell viability [13] | cell viability [14] | cell viability [15] | cell viability [16] | cell viability [17] | cell viability [18] | cell viability [19] | cell viability [20] | cell viability [21] | cell viability [22] | cell viability [23] | cell viability [24] | cell viability [25] | cell viability [26] | cell viability [27] | cell viability [28] | cell viability [29] | cell viability [30] | cell viability [31] | cell viability [32] | cell viability [33] |
| --- | --- | --- | --- | --- | --- | --- | --- | --- | --- | --- | --- | --- | --- | --- | --- | --- | --- | --- | --- | --- | --- | --- | --- | --- | --- | --- | --- | --- | --- | --- | --- | --- | --- |
| C[C@@H]1C[C@H]2[C@@H]3CC\C4=C\C(=O)\C=C/[C@]4(C)[C@@]3(Cl)[C@@H](O)C[C@]2(C)[C@@]1(OC(=O)C5=CC=CO5)C(=O)CCl | 118% | 109% | 113% | 115% | 118% | 99.2% | 103% | 107% | 81.9% | 71.6% | 84.2% | 112% | 111% | 101% | 102% | 104% | 103% | 108% | 101% | 97.1% | 70.5% | 84.2% | 95.1% | 112% | 106% | 113% | 105% | 110% | 98% | 109% | 97.9% | 65.4% | 79.7% |
| CN(C)CC/C=C1/c2ccccc2COc2ccc(CC(=O)O)cc21 | – | – | – | – | – | – | – | – | – | – | – | 112% | 115% | 120% | 128% | 153% | 131% | 148% | 166% | 153% | 149% | 147% | – | – | – | – | – | – | – | – | – | – | – |
| CCNc1cc(NC2CCC(O)CC2)nc(Nc2ccc3c(ccn3Cc3ccccc3)c2)n1 (configuration not stated) | 113% | 121% | 126% | 124% | 147% | 118% | 127% | 139% | 121% | 116% | 120% | – | – | – | – | – | – | – | – | – | – | – | 115% | 123% | 124% | 142% | 141% | 129% | 148% | 121% | 150% | 145% | 106% |
| CC(C)c1ccccc1Cc1cc(C(=O)Nc2ccc([S+](=O)([O-])c3ccccc3C(C)(C)C)cc2)c(O)c(O)c1O | – | – | – | – | – | – | – | – | – | – | – | 102% | 116% | 101% | 102% | 114% | 117% | 102% | 109% | 105% | 97.4% | 87.7% | 103% | 117% | 111% | 115% | 108% | 118% | 104% | 118% | 96.8% | 97% | 104% |
| O=C(CCCCCCC(=O)Nc1ccccc1)NO | 92.9% | 102% | 106% | 96.9% | 113% | 104% | 102% | 111% | 67.3% | 38.4% | 5.95% | 81.3% | 94% | 89.2% | 96.4% | 110% | 105% | 109% | 98.9% | 83.3% | 44% | 5% | 74.9% | 90.8% | 102% | 114% | 119% | 105% | 119% | 113% | 88.6% | 57.6% | 6.52% |
| OCCCNc1cc(-c2ccnc(Nc3cccc(Cl)c3)n2)ccn1 | 106% | 107% | 119% | 119% | 114% | 80.4% | 14.1% | 7.46% | 8.09% | 6.31% | 4.31% | 92.2% | 98.4% | 117% | 111% | 107% | 54.5% | 18.8% | 9.75% | 8.02% | 7.79% | 4.61% | 97.5% | 95.8% | 100% | 106% | 100% | 63.3% | 15.8% | 7.75% | 7.44% | 7.1% | 5.05% |
| COC[C@H]1OC(=O)C2=COC3=C2[C@@]1(C)\C4=C(\[C@@H]5CC[C@H](O)[C@@]5(C)C[C@H]4OC(C)=O)C3=O | 106% | 112% | 117% | 111% | 132% | 134% | 118% | 113% | 88.6% | 93.1% | 70.6% | 98.9% | 111% | 117% | 107% | 123% | 114% | 117% | 109% | 110% | 102% | 87.6% | 88.2% | 103% | 110% | 106% | 118% | 126% | 115% | 119% | 97.9% | 94% | 83.5% |
| COc1cc(N[S+](=O)([O-])c2ccc(N)cc2)nc(OC)n1 | 102% | 106% | 111% | 116% | 109% | 92.5% | 114% | 112% | 99.3% | 132% | 109% | 107% | 106% | 116% | 111% | 124% | 111% | 112% | 103% | 96.3% | 111% | 120% | 105% | 91.9% | 104% | 103% | 102% | 115% | 110% | 99.9% | 94% | 116% | 111% |
| Nc1nc(OCc2ccccc2)c2nc[nH]c2n1 | – | – | – | – | – | – | – | – | – | – | – | 95.7% | 117% | 103% | 109% | 113% | 101% | 133% | 107% | 108% | 108% | 115% | 110% | 119% | 123% | 118% | 128% | 125% | 122% | 110% | 116% | 129% | 123% |
